Data from patent publication US20180243298A1, “TRPV3 MODULATORS” (AbbVie Inc., priority 2015, published 2018).

Biological target: T1, human TRPV3 (Homo sapiens, UniProt Q8NET8)
T1 construct: expressed in transfected cells; host or cells: HEK293
T1 sequence (Q8NET8 1-790): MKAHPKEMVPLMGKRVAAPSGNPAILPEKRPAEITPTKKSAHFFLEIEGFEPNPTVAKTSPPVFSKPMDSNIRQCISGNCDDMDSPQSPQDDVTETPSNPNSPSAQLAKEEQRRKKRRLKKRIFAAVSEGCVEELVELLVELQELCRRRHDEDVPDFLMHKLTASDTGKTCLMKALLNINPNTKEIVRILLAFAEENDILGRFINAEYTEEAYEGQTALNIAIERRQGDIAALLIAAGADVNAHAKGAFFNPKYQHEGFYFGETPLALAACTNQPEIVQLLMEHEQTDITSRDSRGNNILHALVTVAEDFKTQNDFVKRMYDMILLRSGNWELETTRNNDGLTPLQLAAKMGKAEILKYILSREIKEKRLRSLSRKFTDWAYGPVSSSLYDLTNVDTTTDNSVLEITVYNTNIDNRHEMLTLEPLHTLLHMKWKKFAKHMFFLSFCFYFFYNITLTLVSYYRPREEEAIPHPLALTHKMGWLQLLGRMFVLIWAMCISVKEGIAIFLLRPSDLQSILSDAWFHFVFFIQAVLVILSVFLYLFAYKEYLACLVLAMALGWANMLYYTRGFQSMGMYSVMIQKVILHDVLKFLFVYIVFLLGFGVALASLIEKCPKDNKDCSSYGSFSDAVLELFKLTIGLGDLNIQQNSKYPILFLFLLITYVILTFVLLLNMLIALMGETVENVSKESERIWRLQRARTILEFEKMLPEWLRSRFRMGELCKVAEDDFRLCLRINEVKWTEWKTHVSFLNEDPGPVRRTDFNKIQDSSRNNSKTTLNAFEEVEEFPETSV
Experiment: Calcium flux assay (FLIPR TETRA), recombinant HEK293 cells expressing TRPV3, 2-APB response
Type: cell-based
Settings: 2-APB at its EC80
Method: (i) In Vitro Methods-Calcium Flux Assays:
Experiments were conducted using the FLIPR TETRA®. On the day prior to the experiment, recombinant HEK293 cells that stably express human and mouse TRPV3 were removed from tissue culture flasks and plated in growth medium at 20,000 cells/well into black-walled clear-bottom 384-well BIOCOAT™ poly-D-lysine assay plates (BD Biosciences, Bedford, Mass.) using a MULTIDROP® dispenser (ThermoScientific, Waltham, Mass.). On the day of the experiment, growth medium was removed, and the no-wash FLIPR® Calcium-4 dye (λEX=470-495 nm, λEM=515-575 nm; Molecular Devices, Sunnyvale, Calif.) was added to each well using the MULTIDROP® dispenser. Cells were incubated for 90-120 minutes in the dark. The compounds were dissolved in DMSO to prepare a 10 mM stock solution. The intensity of the fluorescence was captured and digitally transferred to an interfaced PC. The peak increase in fluorescence over baseline, measured in relative fluorescence units, was calculated and expressed as the percentage of the maximal 2-APB (2-aminoethoxyldiphenyl borate) response (in the absence of compound). The concentration of 2-APB corresponds to its EC80.

IC50 [µM]	Compound
< 0.05	COc1ncnc(OC)c1C(=O)Nc1nc(-c2ccc(C(F)(F)F)cn2)cs1 [Example 73, 4,6-dimethoxy-N-{4-[5-(trifluoromethyl)pyridin-2-yl]-1,3-thiazol-2-yl}pyrimidine-5-carboxamide]
0.1 to 0.5	COc1ncnc(OC)c1C(=O)Nc1nc(-c2ccc(C(F)(F)F)cn2)c(C=O)s1 [Example 76, N-{5-formyl-4-[5-(trifluoromethyl)pyridin-2-yl]-1,3-thiazol-2-yl}-4,6-dimethoxypyrimidine-5-carboxamide]
0.05 to 0.1	COc1ncnc(OC)c1C(=O)Nc1nc(-c2ccc(C(F)(F)F)cn2)c(CO)s1 [Example 80, N-{5-(hydroxymethyl)-4-[5-(trifluoromethyl)pyridin-2-yl]-1,3-thiazol-2-yl}-4,6-dimethoxypyrimidine-5-carboxamide]
0.05 to 0.1	COc1ncnc(OC)c1C(=O)Nc1nc(-c2ccc(C(F)(F)F)cn2)c(C(C)(C)O)s1 [Example 85, N-{5-(2-hydroxypropan-2-yl)-4-[5-(trifluoromethyl)pyridin-2-yl]-1,3-thiazol-2-yl}-4,6-dimethoxypyrimidine-5-carboxamide]
< 0.05	COCc1sc(NC(=O)c2c(OC)ncnc2OC)nc1-c1ccc(C(F)(F)F)cn1 [Example 86, 4,6-dimethoxy-N-{5-(methoxymethyl)-4-[5-(trifluoromethyl)pyridin-2-yl]-1,3-thiazol-2-yl}pyrimidine-5-carboxamide]
0.05 to 0.1	COc1ncnc(OC)c1C(=O)Nc1nc(-c2ccc(C(F)(F)F)cn2)c(C(C)=O)s1 [Example 87, N-{5-acetyl-4-[5-(trifluoromethyl)pyridin-2-yl]-1,3-thiazol-2-yl}-4,6-dimethoxypyrimidine-5-carboxamide]
0.05 to 0.1	COc1ncnc(OC)c1C(=O)Nc1nc(-c2ccc(C(F)(F)F)cn2)c(/C(C)=N/O)s1 [Example 88, N-{5-[(1E)-N-hydroxyethanimidoyl]-4-[5-(trifluoromethyl)pyridin-2-yl]-1,3-thiazol-2-yl}-4,6-dimethoxypyrimidine-5-carboxamide]
0.5 to 1	COc1ncnc(OC)c1C(=O)Nc1nc(-c2ccc(F)cn2)cs1 [Example 91, N-[4-(5-fluoropyridin-2-yl)-1,3-thiazol-2-yl]-4,6-dimethoxypyrimidine-5-carboxamide]
< 0.05	COc1ncnc(OC)c1C(=O)Nc1nc(-c2ccc(OC(F)(F)F)cn2)cs1 [Example 92, 4,6-dimethoxy-N-{4-[5-(trifluoromethoxy)pyridin-2-yl]-1,3-thiazol-2-yl}pyrimidine-5-carboxamide]
0.1 to 0.5	COc1ncnc(OC)c1C(=O)Nc1nc(-c2ccc(OC(F)(F)F)cc2)cs1 [Example 93, 4,6-dimethoxy-N-{4-[4-(trifluoromethoxy)phenyl]-1,3-thiazol-2-yl}pyrimidine-5-carboxamide]
0.1 to 0.5	COc1ncnc(OC)c1C(=O)Nc1nc(-c2ccc(C(F)F)cn2)cs1 [Example 94, N-{4-[5-(difluoromethyl)pyridin-2-yl]-1,3-thiazol-2-yl}-4,6-dimethoxypyrimidine-5-carboxamide]
< 0.05	COc1ncnc(OC)c1C(=O)Nc1nc(-c2ccc(C(F)(F)F)cn2)c(C)s1 [Example 95, 4,6-dimethoxy-N-{5-methyl-4-[5-(trifluoromethyl)pyridin-2-yl]-1,3-thiazol-2-yl}pyrimidine-5-carboxamide]
0.05 to 0.1	COc1ncnc(OC)c1C(=O)Nc1nc(-c2ccc(C(F)(F)F)cn2)c(C#N)s1 [Example 97, N-{5-cyano-4-[5-(trifluoromethyl)pyridin-2-yl]-1,3-thiazol-2-yl}-4,6-dimethoxypyrimidine-5-carboxamide]

Continued, molecule first:

Compound	IC50 [µM]
COc1ncnc(OC)c1C(=O)Nc1nc(C(F)(F)F)c(Cl)s1 [Example 63, N-[5-chloro-4-(trifluoromethyl)-1,3-thiazol-2-yl]-4,6-dimethoxypyrimidine-5-carboxamide]	< 0.05
COc1ncnc(OC)c1C(=O)Nc1nc(C(F)(F)F)c(-c2cn(C)nc2C)s1 [Example 67, N-[5-(1,3-dimethyl-1H-pyrazol-4-yl)-4-(trifluoromethyl)-1,3-thiazol-2-yl]-4,6-dimethoxypyrimidine-5-carboxamide]	0.05 to 0.1
CCc1sc(NC(=O)c2c(OC)nc(C)nc2OC)nc1C(F)(F)F [Example 69, N-[5-ethyl-4-(trifluoromethyl)-1,3-thiazol-2-yl]-4,6-dimethoxy-2-methylpyrimidine-5-carboxamide]	0.05 to 0.1
CCOc1ncnc(OC)c1C(=O)Nc1nc(C(F)(F)F)c(CC)s1 [Example 70, 4-ethoxy-N-[5-ethyl-4-(trifluoromethyl)-1,3-thiazol-2-yl]-6-methoxypyrimidine-5-carboxamide]	< 0.05
CCOc1ncnc(OCC)c1C(=O)Nc1nc(C(F)(F)F)c(CC)s1 [Example 71, 4,6-diethoxy-N-[5-ethyl-4-(trifluoromethyl)-1,3-thiazol-2-yl]pyrimidine-5-carboxamide]	< 0.05
CCOC(=O)c1sc(NC(=O)c2c(OC)ncnc2OC)nc1-c1ccc(C(F)(F)F)cn1 [Example 75, ethyl 2-{[(4,6-dimethoxypyrimidin-5-yl)carbonyl]amino}-4-[5-(trifluoromethyl)pyridin-2-yl]-1,3-thiazole-5-carboxylate]	0.1 to 0.5
COc1ncnc(OC)c1C(=O)Nc1nc(-c2ccc(C(F)(F)F)cn2)c(CN2CCOCC2)s1 [Example 77, 4,6-dimethoxy-N-{5-(morpholin-4-ylmethyl)-4-[5-(trifluoromethyl)pyridin-2-yl]-1,3-thiazol-2-yl}pyrimidine-5-carboxamide]	< 0.05
COc1ncnc(OC)c1C(=O)Nc1nc(-c2ccc(C(F)(F)F)cn2)c(CN2CCCC2)s1 [Example 78, 4,6-dimethoxy-N-{5-(pyrrolidin-1-ylmethyl)-4-[5-(trifluoromethyl)pyridin-2-yl]-1,3-thiazol-2-yl}pyrimidine-5-carboxamide]	0.1 to 0.5
COc1ncnc(O)c1C(=O)Nc1nc(-c2ccc(C(F)(F)F)cn2)c(C(=O)N(C)C)s1 [Example 79, N-{5-(dimethylcarbamoyl)-4-[5-(trifluoromethyl)pyridin-2-yl]-1,3-thiazol-2-yl}-4-hydroxy-6-methoxypyrimidine-5-carboxamide]	> 1
COc1ncnc(OC)c1C(=O)Nc1nc(-c2ccc(OC(F)(F)F)cc2)c(C(C)O)s1 (centres unmarked) [Example 82, N-{5-(1-hydroxyethyl)-4-[4-(trifluoromethoxy)phenyl]-1,3-thiazol-2-yl}-4,6-dimethoxypyrimidine-5-carboxamide]	0.1 to 0.5
CO/N=C(\C)c1sc(NC(=O)c2c(OC)ncnc2OC)nc1-c1ccc(C(F)(F)F)cn1 [Example 89, 4,6-dimethoxy-N-{5-[(1E)-N-methoxyethanimidoyl]-4-[5-(trifluoromethyl)pyridin-2-yl]-1,3-thiazol-2-yl}pyrimidine-5-carboxamide]	< 0.05
COc1ncnc(OC)c1C(=O)Nc1nc(-c2ccc(C(F)(F)F)cn2)c(C2(C)OCCO2)s1 [Example 90, 4,6-dimethoxy-N-{5-(2-methyl-1,3-dioxolan-2-yl)-4-[5-(trifluoromethyl)pyridin-2-yl]-1,3-thiazol-2-yl}pyrimidine-5-carboxamide]	0.05 to 0.1
COc1ncnc(OC)c1C(=O)Nc1nc(-c2ccc(C(F)(F)F)cn2)c(CCCO)s1 [Example 96, N-{5-(3-hydroxypropyl)-4-[5-(trifluoromethyl)pyridin-2-yl]-1,3-thiazol-2-yl}-4,6-dimethoxypyrimidine-5-carboxamide]	0.1 to 0.5
COc1ncnc(OC)c1C(=O)Nc1nc(C2CCCC2)cs1 [Example 98, N-(4-cyclopentyl-1,3-thiazol-2-yl)-4,6-dimethoxypyrimidine-5-carboxamide]	0.1 to 0.5
COc1ncnc(OC)c1C(=O)Nc1nc(C2CCC(F)(F)CC2)cs1 [Example 99, N-[4-(4,4-difluorocyclohexyl)-1,3-thiazol-2-yl]-4,6-dimethoxypyrimidine-5-carboxamide]	0.1 to 0.5
COc1ncnc(OC)c1C(=O)Nc1nc(C(C)(C)C)c(F)s1 [Example 100, N-(4-tert-butyl-5-fluoro-1,3-thiazol-2-yl)-4,6-dimethoxypyrimidine-5-carboxamide]	< 0.05
